From paper PMC9032385, “A2A Adenosine Receptor Antagonists: Are Triazolotriazine and Purine Scaffolds Interchangeable?” (Molecules, 2022)

How the values were obtained:
PD patients = tested on: PD patients; parameters: method as in PMID 26523919; conditions: two phase III trials, adjunct to levodopa in PD patients; cited from earlier work
human recombinant A3AR = molecular target: T1, human recombinant A3AR (Homo sapiens, UniProt P0DMS8); test: Radioligand binding at human A3AR ([3H]HEMADO displacement, CHO cell membranes); conditions: displacement of [3H]HEMADO, n = 3–5, means ± standard errors
T1 construct: expressed in transfected cells; membrane preparation
T1 sequence (P0DMS8 1-318): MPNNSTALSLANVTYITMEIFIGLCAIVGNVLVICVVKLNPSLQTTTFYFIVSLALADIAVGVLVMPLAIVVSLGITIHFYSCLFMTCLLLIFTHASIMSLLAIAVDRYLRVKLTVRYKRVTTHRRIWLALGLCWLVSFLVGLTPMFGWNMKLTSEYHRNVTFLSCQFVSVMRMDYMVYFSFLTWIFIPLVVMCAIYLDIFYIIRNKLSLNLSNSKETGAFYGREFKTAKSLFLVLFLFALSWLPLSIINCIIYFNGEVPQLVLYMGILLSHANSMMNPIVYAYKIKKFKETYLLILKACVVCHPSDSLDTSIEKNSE
Description: (§1) The affinities of the newly synthesized compounds 7–13 and 17–21 were determined in binding studies at human recombinant A1, A2A, and A3 ARs, stably transfected in Chinese hamster ovary (CHO) cells, using [^3H]CCPA (2-chloro-N^6-cyclopentylAdo), [^3H]NECA (5′-N-ethylcarboxamidoAdo), and [^3H]HEMADO (2-hexynyl-N^6-methylAdo) as respective radioligands. Most of the compounds were also evaluated at A2BARs in a functional study using the GloSensor cAMP assay. The results are reported in Table 1 as Ki values in nM (± standard errors). In the case of A2BARs, Ki-values were calculated from IC50-values determined by the inhibition of NECA-stimulated adenylyl cyclase activity.
(§2) Cell culture: The Chinese hamster ovary cells (CHO) stably transfected with the desired ARs were grown in DMEM/F12 medium containing 10% FBS (fetal bovine serum), 100 U/mL penicillin, 100 µg/mL streptomycin, 2.5 μg/mL amphotericin B, 1 mM sodium pyruvate, 0.1 mg/mL genetecina (G418), and incubated at 37 °C in a gaseous mixture of 5% CO2: […].
(§3) Preparation of membranes: Cell membranes for binding assays were prepared mechanically detaching the cells from the petri and suspending them in a cold hypotonic buffer (5 mM Tris/HCl, 2 mM EDTA, pH 7.4). The cell suspension was homogenized (Ultra-Turrax, 2 × 15 s at maximum speed) and the homogenate centrifuged for 10 min (4 °C) to 1000× g. The supernatant was subsequently centrifuged for 30 min (4 °C) at 100,000× g and the pellet containing the membrane proteins was re-suspended in a specific buffer for each receptor subtype (A1: 50 mM Tris/HCl, pH 7.4; A2A: 50 mM Tris/HCl, 10 mM MgCl2, pH 7.4; A3: 50 mM Tris/HCl, 10 mM MgCl2, 1 mM EDTA, pH 8.25). The amount of the protein suspension was determined according to the […] using the BCA Protein Assay Kit (Pierce), frozen in liquid nitrogen, and stored at −80 °C.
(§4) Binding assays: The dissociation constants of the radioligand (KD) were calculated through saturation assays, while the dissociation constants of the compounds under study (Ki) were determined by competition experiments. All binding data were calculated by nonlinear regression curves using the software GraphPad Prism 5 (GraphPad Software, San Diego, CA, USA). The increasing concentrations of the radioligand saturation binding ([^3H]-CCPA for the A1 receptor subtype, [^3H]-NECA for the A2A receptor subtype, and [^3H]-HEMADO for the A3 receptor) subtype were incubated in a total volume of 250 μL containing 0.2 U/mL of Ado deaminase (ADA) and 12 micrograms of membrane proteins in the specific buffer. In competition experiments for the A1 receptor subtype, each compound was added at increasing concentrations, to the well containing 1 nM of [^3H]-CCPA, to a final volume of 200 μL. The samples were left to incubate for 3 h at room temperature, filtered in a filter 96-well plate (UniFilter GF/C, Perkin-Elmer Life and Analytical Science, Boston, MA) using the FilterMate Cell Harvester (Perkin-Elmer), and washed 3 times with cold distilled water. After drying the filter plate at 40 °C for 30′, they 20 μL of scintillating liquid (Microscint-20, Perkin-Elmer) was added to each well, and then the radioactivity was quantized with the MicroBeta2 Plate Counter (Perkin-Elmer). The conditions for binding experiments at A2A and A3 receptor subtypes were essentially the same as for the A1AR using [^3H]-NECA (N-ethylcarboxyamideAdo) at a concentration of 10 nM and [^3H]-HEMADO (2-(1-hexyne)-N^6-methylAdo) at a concentration of 1 nM as radioligands, respectively. The samples were incubated with 12 micrograms of protein for 3 h at room temperature and filtered as described above.
(§5) The non-specific binding was determined in the presence of 1 mM theophylline for the A1AR, or 100 µM R-PIA (N^6-(1-methyl-2-phenylethyl)Ado) for the A2A and A3 receptors.

human recombinant A2AAR = molecular target: T2, human recombinant A2AAR (Homo sapiens, UniProt P29274); test: Radioligand binding at human A2AAR ([3H]NECA displacement, CHO cell membranes); conditions: displacement of [3H]NECA, CHO membranes, n = 3–5, means ± standard errors
T2 construct: expressed in transfected cells; membrane preparation
Description: Most of the compounds were also evaluated at A2BARs in a functional study using the GloSensor cAMP assay. […] In the case of A2BARs, Ki-values were calculated from IC50-values determined by the inhibition of NECA-stimulated adenylyl cyclase activity.
Preparation of membranes: Cell membranes for binding assays were prepared mechanically detaching the cells from the petri and suspending them in a cold hypotonic buffer (5 mM Tris/HCl, 2 mM EDTA, pH 7.4). The cell suspension was homogenized (Ultra-Turrax, 2 × 15 s at maximum speed) and the homogenate centrifuged for 10 min (4 °C) to 1000× g. […] The amount of the protein suspension was determined according to the […] using the BCA Protein Assay Kit (Pierce), frozen in liquid nitrogen, and stored at −80 °C.
as §4, §5

human recombinant A1AR = molecular target: T3, human recombinant A1AR (Homo sapiens, UniProt P30542); test: Radioligand binding at human A1AR ([3H]CCPA displacement, CHO cell membranes); conditions: displacement of [3H]CCPA, n = 3–5, means ± standard errors
T3 construct: expressed in transfected cells; membrane preparation
T3 sequence (P30542 1-326): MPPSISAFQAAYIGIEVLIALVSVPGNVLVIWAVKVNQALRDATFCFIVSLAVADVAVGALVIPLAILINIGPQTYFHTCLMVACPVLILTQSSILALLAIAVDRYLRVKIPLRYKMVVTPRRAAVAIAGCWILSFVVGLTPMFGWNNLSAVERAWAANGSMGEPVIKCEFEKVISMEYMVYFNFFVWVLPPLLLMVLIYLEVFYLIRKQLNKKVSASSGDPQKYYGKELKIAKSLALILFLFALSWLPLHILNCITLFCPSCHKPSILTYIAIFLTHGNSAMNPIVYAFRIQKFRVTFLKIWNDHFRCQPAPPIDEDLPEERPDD
Description: as §1, §2, §3, §4, §5

A2BAR = molecular target: T4, A2BAR (Homo sapiens, UniProt P29275); test: Functional study at A2BAR (GloSensor cAMP assay; inhibition of NECA-stimulated adenylyl cyclase activity); type: cell-based; conditions: Ki calculated from IC50 of inhibition of NECA-stimulated adenylyl cyclase activity, CHO cells
T4 construct: expressed in transfected cells
T4 sequence (P29275 1-332): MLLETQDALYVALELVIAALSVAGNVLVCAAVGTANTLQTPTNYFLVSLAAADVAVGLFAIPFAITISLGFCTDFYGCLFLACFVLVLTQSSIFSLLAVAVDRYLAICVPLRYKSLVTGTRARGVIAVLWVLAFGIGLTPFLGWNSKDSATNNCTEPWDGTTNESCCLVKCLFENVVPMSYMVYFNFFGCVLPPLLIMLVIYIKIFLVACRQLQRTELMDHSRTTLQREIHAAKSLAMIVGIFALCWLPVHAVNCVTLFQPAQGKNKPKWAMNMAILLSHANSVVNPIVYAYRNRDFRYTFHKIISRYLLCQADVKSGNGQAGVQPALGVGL
Description: as §1

T2 sequence (P29274 whole entry): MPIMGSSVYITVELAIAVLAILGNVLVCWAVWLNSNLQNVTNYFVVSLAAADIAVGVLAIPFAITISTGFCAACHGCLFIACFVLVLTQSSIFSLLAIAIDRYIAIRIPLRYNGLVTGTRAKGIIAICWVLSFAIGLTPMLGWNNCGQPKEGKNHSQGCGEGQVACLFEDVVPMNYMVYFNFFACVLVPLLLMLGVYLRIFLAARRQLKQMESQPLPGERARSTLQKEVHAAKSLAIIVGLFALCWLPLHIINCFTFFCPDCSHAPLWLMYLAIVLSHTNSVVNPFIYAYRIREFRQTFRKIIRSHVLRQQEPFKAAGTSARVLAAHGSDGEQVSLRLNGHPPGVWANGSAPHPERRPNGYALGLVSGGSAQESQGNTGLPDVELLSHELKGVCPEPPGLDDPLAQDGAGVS

## COCCOc1ccc(N2CCN(CCn3ncc4c3nc(N)n3nc(-c5ccco5)nc43)CC2)cc1 [Preladenant]
PD patients
  efficacy versus placebo: efficacy was not significantly higher than the placebo

## CCn1cnc2c(N)nc(NCCc3ccc(OC)cc3)nc21 [compound 7, 9-Ethyl-N^2-(4-methoxyphenethyl)-9H-purine-2,6-diamine]
Human recombinant A3AR
  Ki: 23.6 µM
Human recombinant A2AAR
  Ki: 1.46 µM
Human recombinant A1AR
  Ki: 5.84 µM
A2BAR
  Ki: > 30 µM

## CCn1c(Br)nc2c(N)nc(NCCc3ccc(OC)cc3)nc21 [compound 8, 8-Bromo-9-ethyl-N^2-(4-methoxyphenethyl)-9H-purine-2,6-diamine]
Human recombinant A3AR
  Ki: 4.03 µM
Human recombinant A2AAR
  Ki: 0.034 µM
Human recombinant A1AR
  Ki: 0.545 µM
A2BAR
  Ki: 4.26 µM

## CCn1c(Br)nc2c(N)nc(NCCc3ccc(O)cc3)nc21 [compound 9, 4-(2-((6-Amino-9-ethyl-8-bromo-9H-purin-2-yl)amino)ethyl)phenol]
Human recombinant A3AR
  Ki: 3.81 µM
Human recombinant A2AAR
  Ki: 0.044 µM
Human recombinant A1AR
  Ki: 0.411 µM
A2BAR
  Ki: 0.393 µM

## CCn1c(O)nc2c(N)nc(NCCc3ccc(OC)cc3)nc21 [compound 10]
Human recombinant A3AR
  Ki: 0.777 µM
Human recombinant A2AAR
  Ki: > 30 µM
Human recombinant A1AR
  Ki: 1.39 µM
A2BAR
  Ki: > 30 µM

## CCn1c(O)nc2c(N)nc(NCCc3ccc(O)cc3)nc21 [compound 11]
Human recombinant A3AR
  Ki: > 30 µM
Human recombinant A2AAR
  Ki: > 30 µM
Human recombinant A1AR
  Ki: 7.05 µM
A2BAR
  Ki: > 30 µM

## CCn1c(-c2ccco2)nc2c(N)nc(NCCc3ccc(OC)cc3)nc21 [compound 12, 9-ethyl-8-(furan-2-yl)-N^2-(4-methoxyphenethyl)-9H-purine-2,6-diamine]
Human recombinant A3AR
  Ki: 0.016 µM
Human recombinant A2AAR
  Ki: 0.001 µM
Human recombinant A1AR
  Ki: 0.0026 µM
A2BAR
  Ki: > 30 µM

## CSc1nc(N)n2nc(S(C)(=O)=O)nc2n1 [compound 17, 2-(Methylsulfonyl)-5-(methylthio)-[1,2,4]triazolo [1,5-a][1,3,5]triazin-7-amine]
Human recombinant A3AR
  Ki: 14.7 µM
Human recombinant A2AAR
  Ki: 3.24 µM
Human recombinant A1AR
  Ki: 5.72 µM

## CCOc1nc2nc(SC)nc(N)n2n1 [compound 18, 2-Ethoxy-5-(methylthio)-[1,2,4]triazolo[1,5-a][1,3,5]triazin-7-amine]
other
  melting point: 220 °C (dec.)
Human recombinant A3AR
  Ki: 9.72 µM
Human recombinant A2AAR
  Ki: 0.583 µM
Human recombinant A1AR
  Ki: 4.57 µM

## CCOc1nc(N)n2nc(OCC)nc2n1 [compound 19, 2,5-diethoxy-[1,2,4]triazolo[1,5-a][1,3,5]triazin-7-amine]
Human recombinant A3AR
  Ki: 4.79 µM
Human recombinant A2AAR
  Ki: 1.06 µM
Human recombinant A1AR
  Ki: 6.36 µM
